This experiment has as its target DYRK1A (HT-497, 6×His tagged rat truncated DYRK1A isoform X1 residues 1-497) (Rattus norvegicus (Rat), UniProt Q63470). Briefly: DYRK1A ELISA assay (HT-PRD phosphorylation). Format: biochemical. Particulars: 100 µM ATP, 5 ng HT-497, 30 min at 30° C. On the procedure: Compounds of Table 1, above, were examined in vitro for activity against DYRK1A, DYRK1B, DYRK2 via an ELISA assay.
DYRK1A assay. […] After blocking, wells were washed extensively with dilution buffer before subjecting to phosphorylation. […] At the end point, wells were washed with ˜350 μl dilution buffer three times to terminate the reaction. […] Each point was run in quadruplicate with DMSO present in all assays at 0.2% final concentration. […] HT-PRD phosphorylation was subsequently determined by the sandwich antibody staining protocol, first with 100 μl mouse mAb 3D3 specific for detecting DYRK1A-phosphorylated PRD (60 min at room temperature) then with 100 μl alkaline phosphatase (AP)-linked anti-mouse secondary antibody (60 min at room temperature), followed by colorimetric reaction with 100 μl PNPP solution (PNPP substrate tablet, Thermo Fisher). […] The readings were then recorded for subsequent IC50 calculation. The DYRK1A assay protocol can also support DYRK1B and DYRK2 phosphorylation reactions in the enzyme concentration-dependent manner; therefore, the method was adapted for measuring the activity of candidate compounds against DYRK1B and DYRK2. For DYRK2, the reactions were performed as described above with 6 ng HT-DYRK2 (6×His tagged full-length human DYRK2 isoform 1). For DYRK1B, the assays were also similarly conducted but with 70 ng GST-DYRK1B (glutathione S-transferase tagged full length human DYRK1B isoform p65) and an extended kinase reaction time of 60 min.
Dilution factors for both mAb 3D3 and secondary antibody were pre-determined for each batch of antibody to ensure that neither antibody was limiting in the assay.
Data transformation, calculation, plotting, curve fitting, and IC 50 calculation were performed in KaleidaGraph (http://www.synergy.com/wordpress_650164087; Mac version 4.1). Data was corrected for background (readings from wells with only PNPP) before subsequent manipulations. […] The resulting residual activity was then plotted against its corresponding inhibitor concentrations in semi-log graph and the plot was fit to the sigmoidal equation, y=a+(b−a)/(1+(x/c)^d), for IC50 calculation.
Background: An ELISA detects its analyte on a solid surface through an enzyme-linked reagent.
`O=C(O[C@@H]1Cc2c(O)cc(O)cc2O[C@H]1c1cc(O)c(O)c(O)c1F)c1cc(O)c(O)c(O)c1` [Compound 46, (2S,3R)-2-(2-fluoro-3,4,5-trihydroxyphenyl)-5,7-dihydroxychroman-3-yl 3,4,5-trihydroxybenzoate]: the IC50 (commonly the midpoint of a concentration-inhibition curve) was less than 100 nM.
Regarding `O=C(O[C@@H]1Cc2c(O)cc(O)cc2O[C@@H]1c1ccc(O)c(O)c1)c1cc(O)c(O)c(O)c1` [Compound 6, (2R,3R)-2-(3,4-dihydroxyphenyl)-5,7-dihydroxychroman-3-yl 3,4,5-trihydroxybenzoate], the IC50 was more than 100 nM.
For the molecule `CS(=O)(=O)Nc1ccc(C(=O)O[C@@H]2Cc3c(O)cc(O)cc3O[C@H]2c2cc(O)c(O)c(O)c2)cc1O` [Compound 37, (2S,3R)-5,7-dihydroxy-2-(3,4,5-trihydroxyphenyl)chroman-3-yl 3-hydroxy-4-(methylsulfonamido)benzoate], the half-maximal inhibitory concentration (IC50) is more than 1000 nM.
For the molecule `CCC(=O)Oc1cc(O)c2c(c1)O[C@H](c1cc(O)c(O)c(O)c1)[C@H](OC(=O)c1cc(O)c(O)c(O)c1)C2` [Compound 69, (2R,3R)-5-hydroxy-7-(propionyloxy)-2-(3,4,5-trihydroxyphenyl)chroman-3-yl 3,4,5-trihydroxybenzoate], the half-inhibitory concentration (IC50) was more than 100 nM.
As for `Nc1ccc(C(=O)O[C@@H]2Cc3c(O)cc(O)cc3O[C@H]2c2cc(O)c(O)c(O)c2)cc1O` [Compound 35, (2S,3R)-5,7-dihydroxy-2-(3,4,5-trihydroxyphenyl)chroman-3-yl 4-amino-3-hydroxybenzoate], the figure is more than 1000 nM; as for `O=C(O[C@@H]1Cc2c(O)cc(O)cc2O[C@@H]1c1cc(O)c(O)c(O)c1)c1ccc(O)cc1` [Compound 21, (2R,3R)-5,7-dihydroxy-2-(3,4,5-trihydroxyphenyl)chroman-3-yl 4-hydroxybenzoate], more than 1000 nM.
Regarding `Nc1ncc(C(=O)O[C@H]2Cc3c(O)cc(O)cc3O[C@@H]2c2ccc(O)c(O)c2)cc1O` [Compound 29, (2R,3S)-2-(3,4-dihydroxyphenyl)-5,7-dihydroxychroman-3-yl 6-amino-5-hydroxynicotinate], the IC50 was more than 1000 nM.
Take `O=C(O[C@H]1Cc2c(O)cc(O)cc2O[C@@H]1c1cc(O)c(O)c(O)c1)c1ccc(O)cc1` [Compound 20, (2R,3S)-5,7-dihydroxy-2-(3,4,5-trihydroxyphenyl)chroman-3-yl 4-hydroxybenzoate]: the 50% inhibitory concentration (IC50) is more than 1000 nM.
For `O=C(O[C@@H]1Cc2c(O)cc(O)cc2O[C@H]1c1cc(O)c(O)c(O)c1F)c1cc(O)c(O)c(O)c1F` [Compound 47, (2S,3R)-2-(2-fluoro-3,4,5-trihydroxyphenyl)-5,7-dihydroxychroman-3-yl 2-fluoro-3,4,5-trihydroxybenzoate], the half-maximal inhibitory concentration (IC50) was less than 100 nM.
Regarding `O=C(O[C@@H]1Cc2c(O)cc(O)cc2O[C@H]1c1cc(O)c(O)c(O)c1)c1cc(O)c(O)c(F)c1` [Compound 66, (2S,3R)-5,7-dihydroxy-2-(3,4,5-trihydroxyphenyl)chroman-3-yl 3-fluoro-4,5-dihydroxybenzoate], the IC50 was more than 100 nM.
For the molecule `Cc1c(C(=O)O[C@@H]2Cc3c(O)cc(O)cc3O[C@H]2c2cc(O)c(O)c(O)c2)ccc(O)c1O` [Compound 63, (2S,3R)-5,7-dihydroxy-2-(3,4,5-trihydroxyphenyl)chroman-3-yl 3,4-dihydroxy-2-methylbenzoate], the IC50 was more than 100 nM.
In the case of `O=C(O[C@@H]1Cc2c(O)cc(O)cc2O[C@H]1c1cc(O)c(O)cc1F)c1cc(O)c(O)c(O)c1` [Compound 45, (2S,3R)-2-(2-fluoro-4,5-dihydroxyphenyl)-5,7-dihydroxychroman-3-yl 3,4,5-trihydroxybenzoate], the IC50 was more than 100 nM.
In the case of `O=C(O[C@H]1Cc2c(O)cc(O)cc2O[C@@H]1c1cc(O)c(O)c(O)c1)c1ccc(O)c(O)c1` [Compound 19, (2R,3S)-5,7-dihydroxy-2-(3,4,5-trihydroxyphenyl)chroman-3-yl 3,4-dihydroxybenzoate], the half-maximal inhibitory concentration (IC50) is more than 100 nM.
Consider `O=C(O[C@H]1Cc2c(O)cc(O)cc2O[C@@H]1c1cc(O)c(O)c(O)c1)c1ccncc1` [Compound 22, (2R,3S)-5,7-dihydroxy-2-(3,4,5-trihydroxyphenyl)chroman-3-yl isonicotinate], for which the IC50 is more than 1000 nM.
Regarding `O=C(O[C@@H]1Cc2c(O)cc(O)cc2O[C@H]1c1cc(O)c(O)c(O)c1)[C@H]1CC[C@H](O)CC1` [Compound 44, (2S,3R)-5,7-dihydroxy-2-(3,4,5-trihydroxyphenyl)chroman-3-yl (1r,4R)-4-hydroxycyclohexane-1-carboxylate], the half-maximal inhibitory concentration (IC50) is more than 1000 nM.
`COc1cc(C(=O)O[C@@H]2Cc3c(O)cc(O)cc3O[C@@H]2c2cc(O)c(O)c(O)c2)cc(O)c1O` [Compound 8, (2R,3R)-5,7-dihydroxy-2-(3,4,5-trihydroxyphenyl)chroman-3-yl 3,4-dihydroxy-5-methoxybenzoate]: the IC50 is more than 100 nM.
As for `CCCCCC(=O)Oc1cc(O)c2c(c1)O[C@H](c1cc(O)c(O)c(O)c1)[C@H](OC(=O)c1cc(O)c(O)c(O)c1)C2` [Compound 71, (2R,3R)-7-(hexanoyloxy)-5-hydroxy-2-(3,4,5-trihydroxyphenyl)chroman-3-yl 3,4,5-trihydroxybenzoate], the IC50 is more than 100 nM.
As for `CCNC(=O)Oc1cc(O)c2c(c1)O[C@H](c1cc(O)c(O)c(O)c1)[C@H](OC(=O)c1cc(O)c(O)c(O)c1)C2` [Compound 70, (2R,3R)-7-((ethylcarbamoyl)oxy)-5-hydroxy-2-(3,4,5-trihydroxyphenyl)chroman-3-yl 3,4,5-trihydroxybenzoate], the figure is more than 100 nM.
`O=C(O[C@H]1Cc2c(O)cc(O)cc2O[C@@H]1c1cc(O)c(O)c(O)c1)c1cnc(O)c(O)c1` [Compound 27, (2R,3S)-5,7-dihydroxy-2-(3,4,5-trihydroxyphenyl)chroman-3-yl 5,6-dihydroxynicotinate]: the IC50 was more than 100 nM.
Consider `CC(C)C(=O)Oc1c(O)cc(C(=O)O[C@@H]2Cc3c(O)cc(O)cc3O[C@@H]2c2cc(O)c(O)c(O)c2)cc1O` [Compound 14, (2R,3R)-5,7-dihydroxy-2-(3,4,5-trihydroxyphenyl)chroman-3-yl 3,5-dihydroxy-4-(isobutyryloxy)benzoate], for which the IC50 was more than 100 nM.
Then `COc1cc([C@@H]2Oc3cc(O)cc(O)c3C[C@H]2OC(=O)c2cc(O)c(O)c(O)c2F)cc(O)c1O` [Compound 49, (2S,3R)-2-(3,4-dihydroxy-5-methoxyphenyl)-5,7-dihydroxychroman-3-yl 2-fluoro-3,4,5-trihydroxybenzoate], with more than 100 nM.
As to `COc1c(O)c(O)c(F)c(C(=O)O[C@@H]2Cc3c(O)cc(O)cc3O[C@H]2c2cc(O)c(O)c(O)c2)c1F` [Compound 59, (2S,3R)-5,7-dihydroxy-2-(3,4,5-trihydroxyphenyl)chroman-3-yl 2,6-difluoro-3,4-dihydroxy-5-methoxybenzoate], the IC50 is more than 100 nM.
For the molecule `O=C(O[C@@H]1Cc2c(O)cc(O)cc2O[C@H]1c1cc(O)c(O)c(O)c1)c1ccc(O)c(O)c1` [Compound 34, (2S,3R)-5,7-dihydroxy-2-(3,4,5-trihydroxyphenyl)chroman-3-yl 3,4-dihydroxybenzoate], the half-maximal inhibitory concentration (IC50) is more than 100 nM.
On to `O=C(O[C@H]1Cc2c(O)cc(O)cc2O[C@@H]1c1cc(O)c(O)c(O)c1)c1ccc(F)c(F)c1` [Compound 24, (2R,3S)-5,7-dihydroxy-2-(3,4,5-trihydroxyphenyl)chroman-3-yl 3,4-difluorobenzoate], for which the IC50 is more than 1000 nM.
Then `O=C(O[C@@H]1Cc2c(O)cc(O)cc2O[C@@H]1c1cc(O)c(O)c(O)c1)c1ccn(O)c(=O)c1` [Compound 26, (2R,3R)-5,7-dihydroxy-2-(3,4,5-trihydroxyphenyl)chroman-3-yl 1-hydroxy-2-oxo-1,2-dihydropyridine-4-carboxylate], with more than 1000 nM; and `O=C(O[C@@H]1Cc2c(O)cc(O)cc2O[C@@H]1c1cc(O)c(O)c(O)c1)c1ccc(F)c(F)c1` [Compound 25, (2R,3R)-5,7-dihydroxy-2-(3,4,5-trihydroxyphenyl)chroman-3-yl 3,4-difluorobenzoate], with more than 1000 nM.
As for `O=C(O[C@@H]1Cc2c(O)cc(O)cc2O[C@H]1c1cc(O)c(O)c(O)c1)c1cc(O)c(O)cc1C(F)(F)F` [Compound 62, (2S,3R)-5,7-dihydroxy-2-(3,4,5-trihydroxyphenyl)chroman-3-yl 4,5-dihydroxy-2-(trifluoromethyl)benzoate], the IC50 is more than 100 nM.
For the molecule `O=C(N[C@H]1Cc2c(O)cc(O)cc2O[C@@H]1c1cc(O)c(O)c(O)c1)c1cc(O)c(O)c(O)c1` [Compound 9, N-((2R,3S)-5,7-dihydroxy-2-(3,4,5-trihydroxyphenyl)chroman-3-yl)-3,4,5-trihydroxybenzamide], the IC50 is more than 100 nM.
Consider `O=C(N[C@H]1Cc2c(O)cc(O)cc2O[C@@H]1c1cc(O)c(O)c(O)c1)c1ccc(F)c(F)c1` [Compound 17, N-((2R,3S)-5,7-dihydroxy-2-(3,4,5-trihydroxyphenyl)chroman-3-yl)-3,4-difluorobenzamide], for which the 50% inhibitory concentration (IC50) is more than 1000 nM.

(Values after US20240336588A1, “COMPOSITIONS AND METHODS FOR ANTIOXIDANT AND ANTI-INFLAMMATORY THERAPEUTICS” (AVANTI BIOSCIENCES INC., priority 2021, published 2024).)
